The conditions of data set [1]: rat, in vivo.
Protocol: (§1) Rats are allowed to recover for 4 days before the study and are deprived of food for 18 hours before the start of the study.
(§2) Levels of plasma dextran following administration of dextran in formulation or in saline were compared to the levels of plasma dextran after intravenous administration. Exposure values, AUC (0-90), were determined for jejunal and intravenous administration and the absolute bioavailability (aBA) was calculated according to the following equation: aBA=(jejunal AUC(0-90))/(iv AUC(0-90))*(iv dose/jejunal dose). Data are presented as Mean±SD (n≥5 rats per group).
(§3) The levels of dextran absorption from rat jejunum after administration of dextran in formulation were compared to the levels of dextran absorbed after intravenous administration. Exposure values, AUC (0-90), were determined for jejunal and intravenous administration and the absolute bioavailability (aBA) determined according to the following equation: aBA=(jejunal AUC(0-90))/(iv AUC(0-90))*(iv dose/jejunal dose). Data are presented as Mean±SD (n≥5 rats per group).
(§4) The levels of dextran absorption from rat jejunum after administration of dextran in formulation were compared to the levels of dextran absorbed after intravenous administration. Exposure values, AUC (0-90), were determined for jejunal and intravenous administration and the absolute Bioavailability (aBA) was determined according to the following equation: aBA=(jejunal AUC(0-90))/(iv AUC(0-90))*(iv dose/jejunal dose). Data are presented as Mean±SD (n≥5 rats per group).
Data set [2] can be described thus: Capsule administration to small intestine of non-anesthetized pigs (Nipple Valve gastric bypass). Particulars: pig, in vivo; read-out: level of bioavailability in pigs, extrapolated from rat results. The text has this:
In order to test the activity of the formulations of the invention when administrated in capsules, an animal model allowing capsule administration to pigs (domestic swine) was established. In order to bypass the stomach and allow direct administration of capsules to the small intestine of the pig, a well established model in dogs (“Nipple Valve model”; Wilsson-Rahmberg & O. Jonsson, Laboratory Animals (1997), 31, 231-240) was adapted to the commercial pig.
The two octreotide formulations shown below in Table 37 were prepared. The octreotide (x) formulation was prepared essentially as described above for the basic formulation wherein the hydrophilic fraction has been simplified to omit MgCl2 and MC400. […] The capsules were not enteric-coated i.e. they were uncoated.
The formulations described above in Table 37 were administered directly to the small intestine of the non-anesthetized pigs via the gastric bypass described above, and plasma octreotide levels were measured post-administration. Exposure values, AUC were determined for the formulations. The % BA was calculated compared to the exposure to octreotide after subcutaneous administration.

Data set [3] is described as follows: Intra-jejunal administration to non-anesthetized cannulated rats: plasma cargo levels, AUC, bioavailability. Particulars: rat.
Protocol: as §1, §2, §3, §4
The conditions of data set [4]: rat, in vivo. This is another data set of the same source.
Protocol: Rats were anesthetized and were administered 100 μL of bulk drug formulation containing an insulin dose of 328 μg/rat (9 IU/rat). Blood samples were collected at 0, 3, 6, 10, 15, 25, 30, 40, 60 and 90 minutes post administration and serum was prepared for determination of human insulin by an immunoassay kit with no cross reactivity between rat and human insulin.
Rats were anesthetized and administered 100 μL of test article (insulin in formulation or insulin in PBS) containing an insulin dose of 328 μg/rat (9 IU/rat). Blood samples were collected at 0, 3, 6, 10, 15, 25, 30, 40, 60 and 90 minutes post administration. Glucose level was immediately determined with a glucometer and serum was prepared for determination of human insulin by an immunoassay kit with no cross reactivity between rat and human insulin.
Blood samples were collected at 0, 3, 6, 10, 15, 25, 30, 40, 60 and 90 minutes post rectal administration and at 0, 15, 30, 45, 60, 90 min, 2, 3, and 4 hours post SC administration. Glucose was immediately determined with a glucometer and insulin by an immunoassay kit. Glucose levels are presented as the percentage form basal levels measured before administration (time 0).
The levels of insulin absorption from rat colon after insulin in formulation administration were compared to the levels of insulin absorbed after SC administration. […]
For data set [5] the following is noted: rat, in vivo. This is another data set of the same source.
Description: Enteric-coated capsules for rats are not available and therefore stomach bypass enabling direct intra-jejunal administration is needed.
A specialized rat model in which three different cannulas are surgically implanted in anesthetized rats was developed: 1. Jejunal cannula—stomach bypass, enables insulin formulation administration, 2. Portal vein cannula—blood sampling prior to the liver, determine insulin that cross the GI wall into the blood, and 3. Jugular vein cannula—to determine the systemic levels of insulin.
Rats (8 rats per group) were anesthetized and their jejunum exposed by abdominal surgery. The jejunum containing intestinal loop was placed on gauze and kept moist and fully intact throughout the entire study. A temporary cannula was inserted into the jejunum and formulated insulin was administered. Blood was collected from both portal and jugular veins at the same time points, with approximately 4 time points per rat. The MEAN±SD value of each time point was used to create a plasma concentration vs. time curve. AUC was determined and rBA was calculated.
A further data set has as its system blood glucose. Briefly: Blood glucose after rectal administration of insulin to rats. The class given is in vivo. The following applies: rat, insulin 328 μg/rat. An excerpt:
The data of FIG. 3 is presented as MEAN±SD, n=5.

Read-outs that look alike come from different tables or passages of the source.

The bioavailability is the share of a dose that reaches the circulation, judged against a reference dose that is usually intravenous.

For the compound `CCNC(=O)[C@@H]1CCCN1C(=O)[C@H](CCCNC(=N)N)NC(=O)[C@H](CC(C)C)NC(=O)[C@@H](CC(C)C)NC(=O)[C@H](Cc1ccc(O)cc1)NC(=O)[C@H](CO)NC(=O)[C@H](Cc1c[nH]c2ccccc12)NC(=O)[C@H](Cc1c[nH]cn1)NC(=O)[C@@H]1CCC(=O)N1` [leuprolide in PBS, leuprolide], the “bioavailability / penetration to the bloodstream” value (“bioavailability / penetration” below) in data set [1] was “negligible penetration to the bloodstream”.

As for `C[C@@H](O)[C@@H]1NC(=O)[C@H](CCCCN)NC(=O)[C@@H](Cc2c[nH]c3ccccc23)NC(=O)[C@H](Cc2ccccc2)NC(=O)[C@@H](NC(=O)[C@H](N)Cc2ccccc2)CSSC[C@@H](C(=O)N[C@H](CO)[C@@H](C)O)NC1=O` [octreotide], the bioavailability in data set [2] was approximately 0.1%.

In the case of `CC[C@H](C)[C@H](NC(=O)[C@H](CCC(=O)O)NC(=O)[C@H](CO)NC(=O)[C@@H](NC(=O)[C@@H](N)CO)C(C)C)C(=O)N[C@@H](CCC(N)=O)C(=O)N[C@@H](CC(C)C)C(=O)N[C@@H](CCSC)C(=O)N[C@@H](Cc1cnc[nH]1)C(=O)N[C@@H](CC(N)=O)C(=O)N[C@@H](CC(C)C)C(=O)NCC(=O)N[C@@H](CCCCN)C(=O)N[C@@H](Cc1cnc[nH]1)C(=O)N[C@@H](CC(C)C)C(=O)N[C@@H](CC(N)=O)C(=O)N[C@@H](CO)C(=O)N[C@@H](CCSC)C(=O)N[C@@H](CCC(=O)O)C(=O)N[C@@H](CCCN=C(N)N)C(=O)N[C@H](C(=O)N[C@@H](CCC(=O)O)C(=O)N[C@@H](Cc1c[nH]c2ccccc12)C(=O)N[C@@H](CC(C)C)C(=O)N[C@@H](CCCN=C(N)N)C(=O)N[C@@H](CCCCN)C(=O)N[C@@H](CCCCN)C(=O)N[C@@H](CC(C)C)C(=O)N[C@@H](CCC(N)=O)C(=O)N[C@@H](CC(=O)O)C(=O)N[C@H](C(=O)N[C@@H](Cc1cnc[nH]1)C(=O)N[C@@H](CC(N)=O)C(=O)N[C@@H](Cc1ccccc1)C(=O)O)C(C)C)C(C)C` [teriparatide in saline, teriparatide], in data set [1], the “bioavailability / penetration” value is given as “no penetration to the bloodstream”. Consider `CN[C@H](CC(C)C)C(=O)N[C@H]1C(=O)N[C@@H](CC(N)=O)C(=O)N[C@H]2C(=O)N[C@H]3C(=O)N[C@H](C(=O)N[C@H](C(=O)O)c4cc(O)cc(O)c4-c4cc3ccc4O)[C@H](O)c3ccc(c(Cl)c3)Oc3cc2cc(c3O[C@@H]2O[C@H](CO)[C@@H](O)[C@H](O)[C@H]2O[C@H]2C[C@](C)(N)[C@H](O)[C@H](C)O2)Oc2ccc(cc2Cl)[C@H]1O` [vancomycin in saline solution, vancomycin], for which the “bioavailability / penetration” value in data set [3] was “no BA was detected”. On to “hGH in PBS: human growth hormone in PBS, control”, for which the “penetration to the bloodstream” value in data set [4] is “no penetration to the bloodstream”. Turning to “insulin control: unformulated insulin control given intra-jejunally”, the “insulin absorbance” value in data set [5] is “minimal insulin absorbance”. As for “insulin in PBS: human insulin solubilized in PBS”, in the data set with blood glucose, the “glucose reduction” value was “only a very slight glucose reduction”.
